Assay results published in patent publication US20240109934A1, “ANTIBIOTICS WITH IMPROVED DRUG RESISTANCE PROFILE” (priority 2021, published 2024).
≈ marks a conversion by molar mass, not a printed value. Entries after “also recorded” stand apart in the source; their conditions may differ. Read-outs that look alike come from different tables or passages of the source.

Tests used:
[1] = system: S. aureus ATCC 29213; assay: MIC by micro-dilution broth method (CLSI); assay type: cell-based; conditions: for MIC: Staphylococcus aureus
[2] = system: S. aureus resistant mutants with EF-G (fusA) mutations; assay: microbe, parasite or virus in culture; assay type: cell-based; conditions: for MIC: Staphylococcus aureus
Procedure: Antimicrobial Susceptibility Tests. Susceptibility testing was performed in biological triplicate, using the micro-dilution broth method as outlined by the Clinical and Laboratory Standards Institute. Bacteria were cultured with cation-adjusted Muller-Hinton broth (Sigma-Aldrich, Cat #90922) in round-bottom 96-well plates (Corning, Cat #3788). Human serum (Ultrafiltrate, unspecified gender, 30K Dalton membrane filtered) was purchased from BioIVT (Hicksville, NY).
Selection of Resistant Mutants. Resistant mutants were selected via the large inoculum method. Briefly, S. aureus ATCC 29213 (1×10^9 CFU) were plated on 100 mm plates of LB agar containing 4, 2, 1, 0.5, and 0.25 μg/mL.
Sequencing of fusA. FusA was amplified by colony PCR. Colonies were picked and diluted in 100 μL sterile H2O. PCR reactions are setup by combining MiFi Mix (Bioline, London, UK), 20 μM primer mix [fusA-F2, fusA_seq1, Forward EF-G2, and Reverse EF-G](S. aureus ATCC 29213), template DNA, and H2O. Reactions were performed on C1000 Thermal Cycler (Bio-Rad, Hercules, CA) with the following conditions: 5 minutes denaturation at 95° C., followed by 30 cycles of 20 seconds at 95° C., 20 seconds at 50° C., and either 1 minute (fusA1) or 1.5 minutes (fusA2) at 72° C. A 10 μL portion of the PCR reaction mixture was analyzed by agarose gel to confirm the product. PCR reactions were purified using GeneJET PCR Purification Kit (Thermo Scientific). PCR amplicons were submitted to the Core DNA Sequencing Facility at the University of Illinois at Urbana-Champaign for Sanger sequencing with the following primers to sequence the fusA [fusA2, fusA_seq1, Forward EF-G2, Forward EF-G3, Forward EF-G4]

[3] = system: E. faecium ATCC 19434; assay: MIC against sensitive E. faecium strain; assay type: cell-based; conditions: Enterococcus faecium, ATCC19434; sensitive strain E. faecium ATCC 19434
[4] = system: multidrug-resistant clinical isolates of E. faecium; assay: MIC against multidrug-resistant clinical isolates of E. faecium; assay type: cell-based; conditions: for Cross-resistance with vancomycin: E. faecium clinical isolates; for MIC: Enterococcus faecium
[5] = Pharmacokinetic assessment in mice; assay type: in vivo, C57BL/6 mice
Procedure: FIG. 3. A). Pharmacokinetic analysis of fusidic acid and FA-CP. […] The data are illustrated as the mean and represent the average of three independent experiments. The pharmacokinetic parameters illustrated above were calculated with a one-compartment model using a non-linear regression program (Phoenix WinNonlin Version 8.1, Certara USA Inc. Princeton NJ 08540 USA). B). S. aureus ATCC 29213 neutropenic thigh infection burden study. CD-1 mice were first rendered neutropenic with cyclophosphamide. Mice were injected on (Day-4 to Day-2) with 150 mg/kg and on (Day-1) with 100 mg/kg of cyclophosphamide, respectively. […] C). S. aureus (FA-32×-B) neutropenic thigh infection study. CD-1 mice were first rendered neutropenic with cyclophosphamide as described above. […] Drugs were formulated with 5% DMSO, 10% Tween 20, 85% PBS immediately before injection. The data shown as means±s.d. and statistical significance was determined by one-way ANOVA with Tukey's multiple comparisons. NS indicates not significant (P>0.05), **P<0.01, ****P<0.0001.
Pharmacokinetic Assessment of sodium fusidate and FA-CP (25). […] The compounds were formulated in 5% DMSO, 10% Tween 20, and 85% PBS. Mice were treated with sodium fusidate or FA-CP (25) (50 mg/kg) via intraperitoneal injection with three mice per time point (15, 30, 45, 60, 120, and 240 min). At specific time points, mice were sacrificed, blood was collected and centrifuged, and the serum was frozen at −80° C. until analysis. The proteins in a 10 μL aliquot of serum were precipitated by the addition of 50 μL acetonitrile with the addition of 10 μL of 1.6 ug/mL internal standard (sodium fusidate was the internal standard when measuring FA-CP (25) and FA-CP (25) was the internal standard when measuring sodium fusidate). The sample was then vortexed and centrifuged to remove the proteins. Supernatants were analyzed with the QTRAP 5500 LC/MS/MS system (Sciex) in the Metabolomics Laboratory of the Roy J. Carver Biotechnology center, University of Illinois at Urbana-Champaign. Software Analyst 1.6.2 was used for data acquisition and analysis. The 1200 Series HPLC System (Agilent Technologies) includes a degasser, an autosampler and a binary pump. The liquid chromatography separation was performed on an Agilent Zorbax SB-Aq column (4.6 mm×50 mm; 5 μm) with mobile phase A (0.1% formic acid in water) and mobile phase B (0.1% formic acid in acetonitrile). The flow rate was 0.3 mL/min. The linear gradient was as follows: 0-1 min: 95% A; 8-13 min: 0% A; 8.1-18.5 min: 95% A. The autosampler was set at 10° C. The injection volume was 5 μL. Mass spectra were acquired under negative electrospray ionization with a voltage of −4,500 V. The source temperature was 450° C. The curtain gas, ion source gas 1 and ion source gas 2 were 32, 60 and 60 psi, respectively. […] The limit of quantitation of (S/N=10) was 1 nM. Pharmacokinetic parameters were calculated with a one-compartment model using a nonlinear regression program (Phoenix WinNonlin Version 8.1; Certara USA).

[6] = system: S. aureus (FA-32×-B); assay: Neutropenic thigh infection burden study, FA-resistant strain; assay type: in vivo; conditions: neutropenic CD-1 mice, FA-resistant strain (P406L), 50 mg/kg IP at 1, 2, 3 h, burden at 8 h
[7] = mice, 50 mg/kg intraperitoneal, serum, one-compartment model
[8] = female, C57BL/6, mouse, in vivo, ip, 50 mg/kg

CC(=O)O[C@H]1C[C@@]2(C)[C@@H](C[C@@H](O)[C@H]3[C@@]4(C)CC[C@@H](O)[C@@H](C)[C@@H]4CC[C@@]32C)/C1=C(\CCC=C(C)C)C(=O)O [FA, Fusidic acid]
MIC ([1]; ATCC29213, WT S. aureus ATCC 29213, n = 3, read-out: MIC Without Human Serum): 0.125 µg/mL (≈ 0.242 µM) | MIC ([2]; read-out: MIC for FA, strain FA-32X-1, EF-G H457Y): 128 µg/mL (≈ 248 µM) | MIC ([2]; read-out: MIC for FA, strain FA-32X-2, EF-G T436I): 8 µg/mL (≈ 15.5 µM) | MIC ([2]; read-out: MIC for FA, strain FA-32X-3, EF-G H457Y): 128 µg/mL (≈ 248 µM) | MIC ([2]; read-out: MIC for FA, strain FA-32X-6, EF-G T436I): 16 µg/mL (≈ 31 µM) | MIC ([2]; read-out: MIC for FA, strain FA-32X-7, EF-G H457Y): 128 µg/mL (≈ 248 µM) | MIC ([2]; read-out: MIC for FA, strain FA-32X-8, EF-G H457Y): 128 µg/mL (≈ 248 µM) | MIC ([2]; read-out: MIC for FA, strain FA-32X-10, EF-G H457Y): 128 µg/mL (≈ 248 µM) | MIC ([2]; read-out: MIC for FA, strain FA-32X-12, EF-G H457Y): 128 µg/mL (≈ 248 µM) | MIC ([2]; read-out: MIC for FA, strain FA-32X-13, EF-G H457Y): 128 µg/mL (≈ 248 µM) | MIC ([2]; read-out: MIC for FA, strain FA-32X-14, EF-G H457Y): 128 µg/mL (≈ 248 µM) | MIC ([2]; read-out: MIC for FA, strain FA-32X-15, EF-G H457Y): 128 µg/mL (≈ 248 µM) | MIC ([2]; read-out: MIC for FA, strain FA-32X-19, EF-G H457Y): 128 µg/mL (≈ 248 µM) | MIC ([2]; read-out: MIC for FA, strain FA-32X-20, EF-G H457Y): 128 µg/mL (≈ 248 µM) | MIC [3]: 2 µg/mL (≈ 3.87 µM) | Cross-resistance with vancomycin [4]: no cross-resistance with vancomycin | MIC ([4]; E. faecium AR0572 (CDC), read-out: MIC): 4 µg/mL (≈ 7.74 µM) | MIC ([4]; E. faecium AR0574 (CDC), read-out: MIC): 2 µg/mL (≈ 3.87 µM) | MIC ([4]; E. faecium AR0575 (CDC), read-out: MIC): 2 µg/mL (≈ 3.87 µM) | MIC ([4]; E. faecium AR0576 (CDC), read-out: MIC): 4 µg/mL (≈ 7.74 µM) | MIC ([4]; E. faecium AR0578 (CDC), read-out: MIC): 2 µg/mL (≈ 3.87 µM) | MIC ([4]; E. faecium AR0579 (CDC), read-out: MIC): 1 µg/mL (≈ 1.94 µM) | AUC ([5]; female, C57BL/6, mouse, in vivo, ip, mice, 50 mg/kg intraperitoneal, serum, one-compartment model, read-out: AUC (converted)): 9360 ng·h/mL | Cmax ([5]; female, C57BL/6, mouse, in vivo, ip, mice, 50 mg/kg intraperitoneal, serum, one-compartment model, read-out: Cmax): 11100 ng/mL | Tmax ([5]; female, C57BL/6, mouse, in vivo, ip, mice, 50 mg/kg intraperitoneal, serum, one-compartment model, read-out: Tmax (converted)): 5.4 min | CL_F [5, 7]: 89.0 mL/min/kg | K10_HL [5, 7]: 31.2 min | Bacterial burden in thigh [6]: no efficacy

CC(=O)O[C@H]1C[C@@]2(C)[C@@H](C[C@@H](O)[C@H]3[C@@]4(C)CC[C@@H](O)[C@@H](C)[C@@H]4CC[C@@]32C)/C1=C(\CCC=C1CCCC1)C(=O)O [FA-CP, (Z)-2-((3R,4S,5S,8S,9S,10S,11R,13R,14S,16S)-16-acetoxy-3,11-dihydroxy-4,8,10,14-tetramethylhexadecahydro-17H-cyclopenta[a]phenanthren-17-ylidene)-5-cyclopentylidenepentanoic acid]
Antibacterial activity relative to FA ([1]; S. aureus ATCC 29213 MIC): equipotent activity to FA | MIC ([1]; ATCC29213, read-out: MIC Without Human Serum): 0.125 µg/mL (≈ 0.23 µM) | MIC ([2]; read-out: MIC for FA-CP, strain FA-CP-32X-1, EF-G H457Y): 32 µg/mL (≈ 59 µM) | MIC ([2]; read-out: MIC for FA-CP, strain FA-CP-32X-2, EF-G H457Y): 64 µg/mL (≈ 118 µM) | MIC ([2]; read-out: MIC for FA-CP, strain FA-CP-32X-3, EF-G H457Y): 64 µg/mL (≈ 118 µM) | MIC ([2]; read-out: MIC for FA-CP, strain FA-CP-32X-4, EF-G H457Y): 32 µg/mL (≈ 59 µM) | MIC ([2]; read-out: MIC for FA-CP, strain FA-CP-32X-5, EF-G H457Y): 64 µg/mL (≈ 118 µM) | MIC ([2]; read-out: MIC for FA-CP, strain FA-CP-32X-6, EF-G H457Y): 64 µg/mL (≈ 118 µM) | MIC ([2]; read-out: MIC for FA-CP, strain FA-CP-32X-7, EF-G H457Y): 64 µg/mL (≈ 118 µM) | MIC ([2]; read-out: MIC for FA-CP, strain FA-CP-32X-8, EF-G H457Y): 64 µg/mL (≈ 118 µM) | MIC ([2]; read-out: MIC for FA-CP, strain FA-CP-32X-9, EF-G H457Y): 32 µg/mL (≈ 59 µM) | MIC ([2]; read-out: MIC for FA-CP, strain FA-CP-32X-10, EF-G D434N): 32 µg/mL (≈ 59 µM) | MIC ([2]; read-out: MIC for FA-CP, strain FA-CP-32X-11, EF-G H457Y): 32 µg/mL (≈ 59 µM) | MIC ([2]; read-out: MIC for FA-CP, strain FA-CP-32X-12, EF-G D434N): 32 µg/mL (≈ 59 µM) | MIC ([2]; read-out: MIC for FA-CP, strain FA-CP-32X-13, EF-G H457Y): 64 µg/mL (≈ 118 µM) | MIC ([2]; read-out: MIC for FA-CP, strain FA-CP-32X-14, EF-G H457Y): 32 µg/mL (≈ 59 µM) | MIC ([2]; read-out: MIC for FA-CP, strain FA-CP-32X-15, EF-G H457Y): 64 µg/mL (≈ 118 µM) | MIC ([2]; read-out: MIC for FA-CP, strain FA-CP-32X-16, EF-G F88L): 64 µg/mL (≈ 118 µM) | MIC ([2]; read-out: MIC for FA-CP, strain FA-CP-32X-17, EF-G F88L): 64 µg/mL (≈ 118 µM) | MIC ([2]; read-out: MIC for FA-CP, strain FA-CP-32X-18, EF-G H457Y): 64 µg/mL (≈ 118 µM) | MIC ([2]; read-out: MIC for FA-CP, strain FA-CP-32X-19, EF-G H457Y): 32 µg/mL (≈ 59 µM) | MIC ([2]; read-out: MIC for FA-CP, strain FA-CP-32X-20, EF-G H457Y): 32 µg/mL (≈ 59 µM) | Fold increase from WT S. aureus of highest MIC ([2]; colonies generated from the same compound at 32× the MIC): 512 | MIC [3]: 2 µg/mL (≈ 3.68 µM) | Cross-resistance with vancomycin [4]: no cross-resistance with vancomycin | MIC ([4]; E. faecium AR0572 (CDC)): 4 µg/mL (≈ 7.37 µM) | MIC ([4]; E. faecium AR0574 (CDC)): 2 µg/mL (≈ 3.68 µM) | MIC ([4]; E. faecium AR0575 (CDC)): 2 µg/mL (≈ 3.68 µM) | MIC ([4]; E. faecium AR0576 (CDC)): 4 µg/mL (≈ 7.37 µM) | MIC ([4]; E. faecium AR0578 (CDC)): 2 µg/mL (≈ 3.68 µM) | MIC ([4]; E. faecium AR0579 (CDC)): 1 µg/mL (≈ 1.84 µM) | AUC [5, 8]: 11700 ng·h/mL | CL_F [5, 8]: 71.3 mL/min/kg | Cmax [5, 8]: 9760 ng/mL | K10_HL [5, 8]: 19.0 min | Tmax [5, 8]: 26.4 min | Bacterial burden in thigh [6]: reductions in bacterial burden; also recorded: in vivo efficacy
